Legend:
CYP2C9 = CYP2C9 (Homo sapiens (Human), UniProt P11712); test: Inhibition of liver cytochrome P450 enzymes (pooled human liver microsomes), CYP2C9; settings: read-out: CYP2C9 IC50
Procedure: (§1) Solutions of each test compound were separately prepared at concentrations of 20000, 6000, 2000, 600, 200, and 60 μM by serial dilution with DMSO:MeCN (50:50 v/v). The individual test compound solutions were then diluted 20 fold with DMSO:MeCN:deionized water (5:5:180 v/v/v) to concentrations of 1000, 300, 100, 30, 10, and 3 μM. […] The percent of organic solvent attributable to the test compound or inhibitor mixture in the final reaction mixture was 2% v/v.
(§2) Pooled human liver microsome suspension (20 mg/mL) was diluted with phosphate buffer to obtain a 5 mg/mL suspension. A solution of NADPH was prepared in phosphate buffer at a concentration of 5 mM. Separate stock solutions of each substrate were prepared in DMSO:MeCN (50:50 v/v), mixed, and diluted in phosphate buffer to obtain a single solution containing each substrate at five times its experimentally determined Km concentration. […]
(§3) Substrate solution and microsome suspension were combined in a 1:1 volume ratio, mixed, and distributed to reaction wells of a PCR plate. […] A portion of the supernatant was analyzed by gradient reverse-phase HPLC with detection by electrospray ionization triple quadrupole mass spectrometry in the positive ion mode.
(§4) Data was fitted to sigmoid dose-response curves and the inhibitory potency of each test compound was determined as its IC50 value.

CYP2C19 = CYP2C19 (Homo sapiens (Human), UniProt P33261); test: Inhibition of liver cytochrome P450 enzymes (pooled human liver microsomes), CYP2C19; settings: read-out: CYP2C19 IC50
Procedure: as §1, §2, §3, §4

CYP17 = CYP17 (Rattus norvegicus (Rat), UniProt P11715); test: Inhibition of CYP17 (pooled rat testicular microsomes); assay type: biochemical
Procedure: CYP17 activity was assayed according to the following procedure. […] The individual test compound and isozyme inhibitor solutions were then diluted 20-fold with deionized water (50:950 v/v) to concentrations of 135, 27, 4.5, 0.9, 0.15, 0.03 and 0.005 μM. […] For active controls, blank test compound diluent was added in place of test compound solution.

Sequence of CYP17 (P11715 whole entry): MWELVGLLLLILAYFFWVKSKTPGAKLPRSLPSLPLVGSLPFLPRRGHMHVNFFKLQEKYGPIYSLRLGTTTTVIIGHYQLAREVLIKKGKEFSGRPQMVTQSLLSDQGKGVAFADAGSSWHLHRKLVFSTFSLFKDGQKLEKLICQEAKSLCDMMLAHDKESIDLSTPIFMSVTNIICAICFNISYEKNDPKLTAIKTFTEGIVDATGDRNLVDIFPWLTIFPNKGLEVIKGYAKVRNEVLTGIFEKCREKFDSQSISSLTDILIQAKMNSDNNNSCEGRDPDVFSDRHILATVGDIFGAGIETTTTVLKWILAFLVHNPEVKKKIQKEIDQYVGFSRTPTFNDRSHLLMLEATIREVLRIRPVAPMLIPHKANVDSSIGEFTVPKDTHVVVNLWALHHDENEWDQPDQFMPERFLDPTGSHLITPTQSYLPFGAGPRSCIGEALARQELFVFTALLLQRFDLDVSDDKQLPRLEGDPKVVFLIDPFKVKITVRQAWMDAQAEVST
Sequence of CYP2C9 (P11712 whole entry): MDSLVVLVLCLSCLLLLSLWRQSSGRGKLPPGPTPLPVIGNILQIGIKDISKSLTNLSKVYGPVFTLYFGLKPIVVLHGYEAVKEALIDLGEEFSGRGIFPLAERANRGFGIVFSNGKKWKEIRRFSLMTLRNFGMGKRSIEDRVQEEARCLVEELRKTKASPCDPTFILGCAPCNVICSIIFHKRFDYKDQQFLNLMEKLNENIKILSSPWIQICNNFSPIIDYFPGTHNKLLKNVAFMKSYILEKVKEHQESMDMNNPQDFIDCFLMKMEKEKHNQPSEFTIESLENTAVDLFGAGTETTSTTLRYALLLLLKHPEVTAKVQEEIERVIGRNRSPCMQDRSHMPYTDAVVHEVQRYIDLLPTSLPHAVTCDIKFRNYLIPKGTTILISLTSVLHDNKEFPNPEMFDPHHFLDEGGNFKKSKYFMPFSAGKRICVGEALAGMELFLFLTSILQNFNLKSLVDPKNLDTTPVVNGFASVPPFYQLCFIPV
Sequence of CYP2C19 (P33261 whole entry): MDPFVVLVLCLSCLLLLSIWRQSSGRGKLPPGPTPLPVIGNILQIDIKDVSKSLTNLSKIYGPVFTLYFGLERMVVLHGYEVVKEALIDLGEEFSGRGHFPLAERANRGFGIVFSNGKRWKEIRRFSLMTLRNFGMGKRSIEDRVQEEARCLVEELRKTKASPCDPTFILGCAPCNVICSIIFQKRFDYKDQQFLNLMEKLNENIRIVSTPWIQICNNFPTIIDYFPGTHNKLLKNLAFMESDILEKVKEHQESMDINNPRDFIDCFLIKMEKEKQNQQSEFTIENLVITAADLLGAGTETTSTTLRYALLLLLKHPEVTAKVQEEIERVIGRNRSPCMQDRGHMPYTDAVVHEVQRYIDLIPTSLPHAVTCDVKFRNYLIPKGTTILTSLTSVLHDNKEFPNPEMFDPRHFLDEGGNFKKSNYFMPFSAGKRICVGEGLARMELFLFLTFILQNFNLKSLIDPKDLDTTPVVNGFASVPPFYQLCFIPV

| SMILES | IC50 (CYP2C9) [µM] | IC50 (CYP2C19) [µM] | IC50 (CYP17) [µM] |
| --- | --- | --- | --- |
| COc1cc2ccc(C(O)(c3c[nH]nn3)C(C)C)cc2cc1OC (centres unmarked) [Example 1, 1-(6,7-Dimethoxynaphthalen-2-yl)-2-methyl-1-(1H-1,2,3-triazol-4-yl)propan-1-ol] | 39 | 33 | 0.18 |
| CC(=O)N1CCN(c2ccc(OCC3COC(Cn4ccnc4)(c4ccc(Cl)cc4Cl)O3)cc2)CC1 (centres unmarked) [Ketoconazole, reference compound] |  |  | 0.4 |

Now from value to molecule:

| IC50 (CYP2C9) [µM] | IC50 (CYP2C19) [µM] | IC50 (CYP17) [µM] | SMILES |
| --- | --- | --- | --- |
| 12 | 19 |  | CC(C)C(O)(c1ccc2cc(OC(F)F)c(OC(F)F)cc2c1)c1c[nH]nn1 (centres unmarked) [Example 3, 1-(6,7-Bis(difluoromethoxy)naphthalen-2-yl)-2-methyl-1-(1H-1,2,3-triazol-4-yl)propan-1-ol] |
|  |  | 0.51 | CC(C)C(O)(c1ccc2cc(-c3cnco3)ccc2c1)c1c[nH]nn1 (centres unmarked) [Example 4, 2-Methyl-1-(6-(oxazol-5-yl)naphthalen-2-yl)-1-(1H-1,2,3-triazol-4-yl)propan-1-ol] |
|  |  | 0.96 | COc1cc2cnc(C(O)(c3c[nH]nn3)C(C)C)cc2cc1OC (centres unmarked) [Example 2, 1-(6,7-Dimethoxyisoquinolin-3-yl)-2-methyl-1-(1H-1,2,3-triazol-4-yl)propan-1-ol] |

From patent US8623892B2, “Metalloenzyme inhibitor compounds” (Viamet Pharmaceuticals, Inc., priority 2010, dated 2014)
